Key:
[1] = target: T1, FLT3-D835Y (Homo sapiens, UniProt P36888, D835Y); test: AlphaScreen kinase assay with recombinant enzyme, FLT3-D835Y; format: biochemical; conditions: 8pt, GMean
T1 construct: purchased Invitrogen PV3967
T1 sequence (P36888 27-993 D835Y): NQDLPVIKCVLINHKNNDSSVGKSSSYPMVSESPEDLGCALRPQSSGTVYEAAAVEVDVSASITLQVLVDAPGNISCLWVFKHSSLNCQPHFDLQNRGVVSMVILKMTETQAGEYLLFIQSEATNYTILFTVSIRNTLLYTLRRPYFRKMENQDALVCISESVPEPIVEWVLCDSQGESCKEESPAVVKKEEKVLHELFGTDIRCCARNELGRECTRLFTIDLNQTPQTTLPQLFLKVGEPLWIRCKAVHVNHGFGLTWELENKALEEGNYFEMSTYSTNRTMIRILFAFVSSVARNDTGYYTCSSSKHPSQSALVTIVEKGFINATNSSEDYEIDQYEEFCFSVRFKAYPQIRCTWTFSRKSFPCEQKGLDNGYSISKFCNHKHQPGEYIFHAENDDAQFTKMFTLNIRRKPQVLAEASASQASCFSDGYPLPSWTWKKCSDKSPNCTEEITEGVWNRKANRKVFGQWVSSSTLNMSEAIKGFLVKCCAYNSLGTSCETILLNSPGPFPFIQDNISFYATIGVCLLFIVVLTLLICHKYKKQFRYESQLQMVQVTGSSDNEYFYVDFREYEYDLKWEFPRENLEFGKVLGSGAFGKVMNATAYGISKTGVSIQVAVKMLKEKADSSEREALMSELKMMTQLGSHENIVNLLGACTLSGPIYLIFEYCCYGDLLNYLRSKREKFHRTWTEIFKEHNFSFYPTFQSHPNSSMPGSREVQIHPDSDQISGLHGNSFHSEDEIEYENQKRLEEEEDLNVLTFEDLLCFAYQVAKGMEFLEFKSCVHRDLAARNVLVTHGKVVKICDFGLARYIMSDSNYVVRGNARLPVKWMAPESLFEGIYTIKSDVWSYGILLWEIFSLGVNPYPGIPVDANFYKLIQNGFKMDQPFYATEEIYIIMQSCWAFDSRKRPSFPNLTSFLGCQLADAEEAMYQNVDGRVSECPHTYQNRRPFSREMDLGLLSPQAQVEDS
In short: (§1)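 Read-out: AlphaScreen proximity signal at 580 nm (680 nm excitation), lost as peptide tyrosine phosphorylation falls. Substrate Biotin-GG(EEEEY)10EE at 30 nM; IC50 runs at 10 μM (FLT3 mutants) or 100 μM (c-KIT) final. Donor beads 20 min, then acceptor beads 60 min, room temperature.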

[2] = target: T2, c-KIT (Homo sapiens, UniProt P10721); test: AlphaScreen kinase assay with recombinant enzyme, c-KIT; format: biochemical; conditions: 100ATP, 8pt, GMean
T2 construct: purchased Millipore 14-559K
In short: as §1

[3] = test system: MOLM-14 D835Y cells, FLT3 ITD and FLT3 D835Y; test: Cell proliferation assay (CellTiter-Glo), MOLM-14 D835Y; format: cell-based; conditions: Homo sapiens, 72 h, 3d-Growth, GMean
In short: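 Three-day growth at 37 °C, 5% CO2 under compound (1 μM top final, 1:3 dilutions, eight points, 0.2% DMSO), read as ATP luminescence by CellTiter-Glo for IC50. Cells: MOLM-14 with FLT3 ITD plus D835Y or F691L, and IL-3-deprived Ba/F3 transfected with FLT3 ITD/D835Y, 1×10^4 per well.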

T2 sequence (P10721 26-976): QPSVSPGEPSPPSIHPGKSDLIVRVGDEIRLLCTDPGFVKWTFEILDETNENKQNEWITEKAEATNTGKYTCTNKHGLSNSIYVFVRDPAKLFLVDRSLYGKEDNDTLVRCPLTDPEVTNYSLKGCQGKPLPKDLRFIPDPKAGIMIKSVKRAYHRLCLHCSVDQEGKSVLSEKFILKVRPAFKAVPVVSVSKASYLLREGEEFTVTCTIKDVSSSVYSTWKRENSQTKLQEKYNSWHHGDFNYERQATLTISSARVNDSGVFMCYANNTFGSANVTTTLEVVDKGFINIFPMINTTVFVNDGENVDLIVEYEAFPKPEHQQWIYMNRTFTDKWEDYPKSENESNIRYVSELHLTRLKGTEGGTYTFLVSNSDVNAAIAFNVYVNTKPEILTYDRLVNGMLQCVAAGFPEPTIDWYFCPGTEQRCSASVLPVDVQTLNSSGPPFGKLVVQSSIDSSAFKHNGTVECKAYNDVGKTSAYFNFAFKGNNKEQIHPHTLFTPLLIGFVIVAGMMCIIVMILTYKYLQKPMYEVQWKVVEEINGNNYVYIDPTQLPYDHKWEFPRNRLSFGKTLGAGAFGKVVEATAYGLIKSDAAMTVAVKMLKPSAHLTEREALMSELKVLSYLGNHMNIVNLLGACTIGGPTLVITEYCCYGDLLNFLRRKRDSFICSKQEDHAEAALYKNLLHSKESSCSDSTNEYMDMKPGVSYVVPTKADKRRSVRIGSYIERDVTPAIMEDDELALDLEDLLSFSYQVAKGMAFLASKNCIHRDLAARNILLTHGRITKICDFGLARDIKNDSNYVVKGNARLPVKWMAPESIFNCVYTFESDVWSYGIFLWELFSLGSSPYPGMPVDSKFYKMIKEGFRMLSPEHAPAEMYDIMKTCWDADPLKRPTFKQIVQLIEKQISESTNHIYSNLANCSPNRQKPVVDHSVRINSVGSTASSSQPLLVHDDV

Row | IC50 [1] | IC50 [2] | IC50 [3] | SMILES
1 | 0.0001 to 10 µM | 0.0001 to 10 µM | – | CONC(=O)c1cccc(-c2cnc3[nH]c(-c4ccccc4)cc3c2)c1 [Compound P-0003, N-methoxy-3-(2-phenyl-1H-pyrrolo[2,3-b]pyridin-5-yl)benzamide]
2 | 0.0001 to 10 µM | 0.0001 to 10 µM | – | C#Cc1cc2cc(-c3cccc(S(=O)(=O)NC4CC4)c3)cnc2[nH]1 [Compound P-0004, N-cyclopropyl-3-(2-ethynyl-1H-pyrrolo[2,3-b]pyridin-5-yl)benzenesulfonamide]
3 | 10 to 50 µM | 0.0001 to 10 µM | – | NC(=O)Nc1ccc(-c2cnc3[nH]c(-c4ccccc4)cc3c2)cc1 [Compound P-0005, [4-(2-phenyl-1H-pyrrolo[2,3-b]pyridin-5-yl)phenyl]urea]
4 | 0.0001 to 10 µM | 0.0001 to 10 µM | – | CNC(=O)Nc1ccc(-c2cnc3[nH]c(-c4ccccc4)cc3c2)cc1 [Compound P-0006, 1-methyl-3-[4-(2-phenyl-1H-pyrrolo[2,3-b]pyridin-5-yl)phenyl]urea]
5 | 0.0001 to 10 µM | 10 to 50 µM | – | CN(C)S(=O)(=O)Nc1cccc(-c2cnc3[nH]c(-c4ccccc4)cc3c2)c1 [Compound P-0007, 5-[3-(dimethylsulfamoylamino)phenyl]-2-phenyl-1H-pyrrolo[2,3-b]pyridine]
6 | 0.0001 to 10 µM | 0.0001 to 10 µM | – | N[C@H]1CCN(C(=O)c2cccc(-c3cnc4[nH]c(-c5ccccc5)cc4c3)n2)C1 [Compound P-0015, [(3S)-3-aminopyrrolidin-1-yl]-[6-(2-phenyl-1H-pyrrolo[2,3-b]pyridin-5-yl)-2-pyridyl]methanone]
7 | 0.0001 to 10 µM | 0.0001 to 10 µM | – | N[C@H]1CCN(C(=O)c2n[nH]c3ccc(-c4cnc5[nH]c(-c6ccccc6)cc5c4)cc23)C1 [Compound P-0016, [(3S)-3-aminopyrrolidin-1-yl]-[5-(2-phenyl-1H-pyrrolo[2,3-b]pyridin-5-yl)-1H-indazol-3-yl]methanone]
8 | 0.0001 to 10 µM | 10 to 50 µM | – | CC(C)(C)OC(=O)NC1CCN(C(=O)c2cccc(-c3cnc4[nH]c(-c5ccccc5)cc4c3)n2)CC1 [Compound P-0017, tert-butyl N-[1-[6-(2-phenyl-1H-pyrrolo[2,3-b]pyridin-5-yl)pyridine-2-carbonyl]-4-piperidyl]carbamate]
9 | 0.0001 to 10 µM | 0.0001 to 10 µM | – | CC(=O)NC1CCN(C(=O)c2cccc(-c3cnc4[nH]c(-c5ccccc5)cc4c3)n2)CC1 [Compound P-0020, N-[1-[6-(2-phenyl-1H-pyrrolo[2,3-b]pyridin-5-yl)pyridine-2-carbonyl]-4-piperidyl]acetamide]
10 | 0.0001 to 10 µM | 50 to 100 µM | – | CC(=O)NC1CCN(C(=O)c2n[nH]c3ccc(-c4cnc5[nH]c(-c6ccccc6)cc5c4)cc23)CC1 [Compound P-0021, N-[1-[5-(2-phenyl-1H-pyrrolo[2,3-b]pyridin-5-yl)-1H-indazole-3-carbonyl]-4-piperidyl]acetamide]
11 | 0.0001 to 10 µM | – | 0.0001 to 10 µM | CCOc1ncc(-c2cc3cc(-c4cccc(C(=O)NC(C)(C)C#N)n4)cnc3[nH]2)cn1 [Compound P-0203, N-(1-cyano-1-methyl-ethyl)-6-[2-(2-ethoxypyrimidin-5-yl)-1H-pyrrolo[2,3-b]pyridin-5-yl]pyridine-2-carboxamide]
12 | 0.0001 to 10 µM | – | 0.0001 to 10 µM | CCc1ncc(-c2cc3cc(-c4cccc(C(=O)NC(C)(C)C#N)n4)cnc3[nH]2)cn1 [Compound P-0205, N-(1-cyano-1-methyl-ethyl)-6-[2-(2-ethylpyrimidin-5-yl)-1H-pyrrolo[2,3-b]pyridin-5-yl]pyridine-2-carboxamide]
13 | 0.0001 to 10 µM | – | 0.0001 to 10 µM | CCCOc1ncc(-c2cc3cc(-c4cccc(C(=O)NC(C)(C)C#N)n4)cnc3[nH]2)cn1 [Compound P-0206, N-(1-cyano-1-methyl-ethyl)-6-[2-(2-propoxypyrimidin-5-yl)-1H-pyrrolo[2,3-b]pyridin-5-yl]pyridine-2-carboxamide]

From patent US9938273B2 (Plexxikon Inc., priority 2015, dated 2018)
